Measurements: patent US9861616B2, “Methods for treating respiratory diseases and formulations therefor” (priority 2013, dated 2018)

Experiments:
[1] = tested on: P. aeruginosa PA12; assay: MIC by microdilution with PaβN or EGTA, clinical isolate overexpressing efflux pumps; assay type: cell-based; conditions: Pseudomonas aeruginosa
Procedure: (§1) MICs of 36 clinical and laboratory strains of PA with known efflux phenotype are measured by microdilution in cation-adjusted Muller-Hinton broth (CA-MHB) or in RPMI medium (commonly used in eukaryotic cell culture). Phe-Arg-β-naphthylamide (PaβN, 50 mg/L) and EGTA 5 mM are used to inhibit efflux pumps and alter OM integrity, respectively. P. aeruginosa strain ATCC PAO1 is used as reference. PA12 is a clinical strain overexpressing the 4 main efflux systems (MexAB, MexCD, MexEF, MexXY), PA403 is a laboratory strain deleted in the genes coding for the 4 efflux systems. A series of reference strains or of clinical isolates for which the expression of genes coding for efflux pumps is known is also used for MICs determinations. MICs are measured by microdilution in MH broth or in RPMI medium (used for eukaryotic cells culture) supplemented with 10% of fetal calf serum, or in MH broth supplemented by increasing amounts of serum. EGTA (5 mM) was used as a chelating agent (disrupting outer membrane integrity) and PaβN (50 mg/L) as an unspecific efflux inhibitor.

[2] = tested on: P. aeruginosa (PA); assay: MIC by microdilution, 36 clinical and laboratory strains with known efflux phenotype; assay type: cell-based
Procedure: as §1

[3] = tested on: TNFα release; assay: LPS-induced TNFα release in PMA-differentiated U937 cells (ELISA); assay type: cell-based, human
Procedure: Effects of macrolides on lipopolysaccharide (LPS)-induced TNFα release in PMA-differentiated U937 cells. […] LPS-induced TNFα release was evaluated by ELISA. Values represent means of three experiments±SEM. ^##p<0.01 (vs. non-treatment control), *p<0.05, **p<0.01 (vs. treatment with LPS only).
The human monocytic cell line U937 was obtained from the American Type Culture Collection (ATCC, Rockville, Md.). PBMCs from COPD patients were obtained from Brompton hospital and separated by AccuSPIN (Sigma-Aldrich). Cells were cultured in complete growth medium (RPMI 1640) (Sigma-Aldrich) supplemented with 10% fetal bovine serum (FBS) and 1% L-glutamine at 37° C. in a humidified atmosphere with 5% CO2. U937 cells were differentiated into adherent macrophage-like morphology by exposure to PMA (50 ng/mL) for 48 hrs in complete growth medium. Cell viability was assessed microscopically by trypan blue staining. Cell toxicity was determined by MTT assay as needed. This study was approved by the ethics committee of the Royal Brompton Hospitals, and all subjects gave written informed consent.
TNFα and IL-8 concentrations in the supernatant of cell cultures were determined by sandwich ELISA according to the manufacturer's instructions (R&D Systems Europe, Abingdon, UK).
The results were expressed as the mean±SEM. Comparisons of data in two groups were performed using the Student's t test or the Wilcoxon signed rank test. Multiple comparisons were made by one-way ANOVA with post hoc test (Dunnett's) as appropriate. The difference was considered significant at p<0.05. IC50 values (50% inhibitory concentration) for macrolides for production of cytokines or MMP9 were calculated using Prism 4.0 (GraphPad Software Inc., San Diego, Calif.).

CC[C@H]1OC(=O)[C@H](C)[C@@H](O[C@H]2C[C@@](C)(OC)[C@@H](O)[C@H](C)O2)[C@H](C)[C@@H](O[C@@H]2O[C@H](C)C[C@H](N(C)C)[C@H]2O)[C@](C)(O)C[C@@H](C)C(=O)[C@H](C)[C@@H](O)[C@]1(C)O [ERY, erythromycin]
2 µg/mL: MIC ([1]; PA12, PA12, RPMI, EGTA 5 mM) | MIC ([2]; strain 397, efflux AB−, RPMI)
did not inhibit: effect on TNFα production ([3]; 33 to 333 μM (FIG. 3))
32 µg/mL: MIC ([1]; PA12, PA12, CA-MHB, PaβN 50 mg/L) | MIC ([1]; PA12, PA12, RPMI, PaβN 50 mg/L) | MIC ([1]; PA12, PA12, RPMI, control conditions (CT)) | MIC ([2]; strain 4, efflux XY+, RPMI) | MIC ([2]; strain 12, efflux AB + CD + EF + XY+, RPMI) | MIC ([2]; strain 16, efflux AB + XY+, RPMI) | MIC ([2]; strain 22, efflux XY+, RPMI) | MIC ([2]; strain 40, efflux EF+, RPMI) | MIC ([2]; strain 391, efflux EF−, RPMI) | MIC ([2]; strain 394, efflux XY−, RPMI) | MIC ([2]; strain 395, efflux HI−, RPMI) | MIC ([2]; strain PAO1, REFERENCE, RPMI)
512 µg/mL: MIC ([1]; PA12, PA12, CA-MHB, EGTA 5 mM) | MIC ([1]; PA12, PA12, CA-MHB, control conditions (CT)) | MIC ([2]; strain 1, efflux AB+, MHB) | MIC ([2]; strain 2, efflux CD+, MHB) | MIC ([2]; strain 4, efflux XY+, MHB) | MIC ([2]; strain 12, efflux AB + CD + EF + XY+, MHB) | MIC ([2]; strain 16, efflux AB + XY+, MHB) | MIC ([2]; strain 21, efflux AB+, MHB) | MIC ([2]; strain 22, efflux XY+, MHB) | MIC ([2]; strain 41, efflux CD+, MHB) | MIC ([2]; strain 48, efflux CD + EF + XY+, MHB) | MIC ([2]; strain 49, efflux CD + EF + XY+, MHB) | MIC ([2]; strain 63, efflux AB + EF + XY+, MHB) | MIC ([2]; strain 68, efflux AB + XY+, MHB) | MIC ([2]; strain 133, efflux EF + XY+, MHB) | MIC ([2]; strain 156, efflux EF + XY+, MHB) | MIC ([2]; strain 168B, efflux CD + XY+, MHB) | MIC ([2]; strain 207, efflux AB + EF + XY+, MHB) | MIC ([2]; strain 266B, efflux AB + CD+, MHB) | MIC ([2]; strain 333A, efflux AB + EF+, MHB) | MIC ([2]; strain 335, efflux AB + EF+, MHB) | MIC ([2]; strain 394, efflux XY−, MHB) | MIC ([2]; strain 434, efflux AB + CD + XY+, MHB) | MIC ([2]; strain PAO1, REFERENCE, MHB)
4 µg/mL: MIC ([2]; strain 398, efflux CD−, RPMI) | MIC ([2]; strain 399, efflux AB − EF−, RPMI) | MIC ([2]; strain 400, efflux XY−, RPMI) | MIC ([2]; strain 401, ompH−, RPMI) | MIC ([2]; strain 403, efflux AB − CD − EF − XY−, RPMI) | MIC ([2]; strain 405, efflux AB − CD − EF − XY−, RPMI)
> 333 µM: IC50 ([3]; Homo sapiens, U-937, U937 cells, at 333 μM, read-out: IC50, LPS-induced TNFα release: NE at 333 μM)
8 µg/mL: MIC ([2]; strain 1, efflux AB+, RPMI) | MIC ([2]; strain 3, efflux EF+, RPMI) | MIC ([2]; strain 401, ompH−, MHB) | MIC ([2]; strain 405, efflux AB − CD − EF − XY−, MHB)
16 µg/mL: MIC ([2]; strain 11, efflux AB + CD+, RPMI) | MIC ([2]; strain 156, efflux EF + XY+, RPMI) | MIC ([2]; strain 392, efflux CD−, RPMI) | MIC ([2]; strain 396, ompH−, RPMI) | MIC ([2]; strain 397, efflux AB−, MHB) | MIC ([2]; strain 398, efflux CD−, MHB) | MIC ([2]; strain 399, efflux AB − EF−, MHB) | MIC ([2]; strain 400, efflux XY−, MHB) | MIC ([2]; strain 403, efflux AB − CD − EF − XY−, MHB)
64 µg/mL: MIC ([2]; strain 21, efflux AB+, RPMI) | MIC ([2]; strain 41, efflux CD+, RPMI) | MIC ([2]; strain 48, efflux CD + EF + XY+, RPMI) | MIC ([2]; strain 49, efflux CD + EF + XY+, RPMI) | MIC ([2]; strain 63, efflux AB + EF + XY+, RPMI) | MIC ([2]; strain 68, efflux AB + XY+, RPMI) | MIC ([2]; strain 133, efflux EF + XY+, RPMI) | MIC ([2]; strain 266B, efflux AB + CD+, RPMI) | MIC ([2]; strain 333A, efflux AB + EF+, RPMI) | MIC ([2]; strain 335, efflux AB + EF+, RPMI)
